# According to patent US20250367145A1, “COMPOUNDS FOR USE IN THE TREATMENT OF KIDNEY DISEASES” (Universitätsmedizin Greifswald, priority 2022, published 2025):
# Experiments:
# [1] = test system: Tg(nphs2:GAL4-VP16); Tg(UAS:Eco.nfsB-mCherry) zebrafish larvae; assay: Edema progression in zebrafish larvae after MTZ podocyte injury (FSGS model), edema types 1-4; format: in vivo; details: for edema progression/formation at 10 μM: 10 μM compound in conjunction with MTZ, compared to MTZ group; for edema progression/formation at 10 μM / most effective concentration for prevention of proteinuric edema: until 8 dpf; for lethality at 100 μM: 100 μM compound in conjunction with MTZ (2 days); for effect in terms of proteinuric edema progression/formation: injury model, in conjunction with MTZ; for progression of podocyte injury induced in the disease model: zebrafish larvae model of FSGS, effects concentration-dependent; for most effective concentration for prevention of proteinuric edema: different concentrations in conjunction with MTZ
# Description: The results are depicted in FIG. 4. A treatment for 48 hours from 4 to 6 dpf with MTZ induces edema formation of four different severities in this strain, scaling from type 1=no edema to type 4=severe edema (FIG. 3). Edema severity of larvae treated with DMSO, MTZ and MTZ plus 1 μM, 10 μM or 100 μM belinostat was categorized at 6, 7 and 8 dpf (FIG. 4). […] Co-treatment with MTZ and 100 μM belinostat induced edema formation in 15% of larvae with 0% type 4 edema in contrast to 60% edema with 31% type 4 edema in the MTZ group. At 7 dpf, progression of edema formation was decelerated in all three groups for all three types of edema that received belinostat, again in a dose-dependent manner. MTZ caused type 4 edema in 56.4% of larvae at 7 dpf, contrary to 1.9% edema in the MTZ+100 μM belinostat group. […] 83.6% of larvae treated with MTZ developed edema with 58.2% showing type 4 edema. […] 10 μM belinostat+MTZ induced edema 80% of larvae with 34.5% type 4 edema. Co-treatment of MTZ with 100 μM belinostat caused edema formation in 64.2% of larvae with 28.3% type 4 edema (FIG. 4).
# FIG. 3 depicts the different degrees of podocyte injury progression: 1: no edema, 2: slight edema, 3: moderate edema, 4: severe edema. Black arrowheads show periocular and blank arrowheads depict abdominal edema. Scale bar: 500 μm.
# FIG. 4 depicts the results of Example 3, measuring the edema progression in larvae that were treated with different concentrations of belinostat in conjunction with MTZ. Edema progression was measured according to the categories of in larvae until 8 dpf following MTZ injury with various concentration of belinostat (DMSO n=52, MTZ n=55, MTZ+1 μM belinostat n=52, MTZ+10 μM belinostat n=55, MTZ+100 μM belinostat n=53).
# [2] = test system: podocytes / glomerular filtration barrier of MTZ-injured zebrafish larvae; assay: Zebrafish larvae podocyte injury screening: vascular eGFP (proteinuria) and glomerular mCherry (podocyte depletion) fluorescence ratios; details: for podocyte protection in drug library screen: co-treatment 80 μM MTZ + 100 μM compound, 24 h from 4 to 5 dpf, 12 larvae per compound
# Description: Groups of 12 larvae from one clutch were distributed into a 24-well plate (#662160 Greiner, Frickenhausen, Germany). For each clutch, 12 larvae were treated with 0.2% DMSO in E3 as negative control and 12 larvae were treated with 80 μM Metronidazole (MTZ) in DMSO in E3 as injury control and comparison group. The Fraunhofer ScreeningPort IME provided an epigenetic drug library which was used for this screening (Table 1). […] The treatment volume was 400 μl for each well with 12 larvae, the wells were sealed with Adhesive Clear PCR Seal (#600208, Biozym Scientific GMBH, Hessisch-Oldendorf) in order to prevent evaporation and plates were incubated at 28.5° C., wrapped in aluminum foil to prevent effects of light. After 24 hours, compounds were washed out in three changes of 0.5×E3.
# After washout at 5 dpf, E3 in the 12-well plate was replaced with E3 containing 0.4 mg/ml tricaine. Larvae were then individually transferred into wells of a 96-well plate (#644101, Greiner) which was prepared with custom agarose molds. For the molds, 45 μl of 0.7% boiling hot agarose (Biozym LE agarose) were transferred with a multichannel pipette into each well. After 3 min cooldown, a custom 3D printed orientation tool (Wittbrodt, Jonas N., Urban Liebel, and Jochen Gehrig. “Generation of orientation tools for automated zebrafish screening assays using desktop 3D printing.” BMC biotechnology 14.1 (2014): 1-6) was inserted into the agarose which produced cavities for orientation. Each larva was transferred with 100 μl tricaine containing E3 into the single wells of the 96-well plate (Row A was always 12×DMSO, Row B was always 12×MTZ, Row C-H were compounds+MTZ) and was then oriented laterally in the molds with a short piece of fishing line glued to a bend injection needle under the stereomicroscope manually with special attention to a flat caudal region.
# Image acquisition for the screening was performed with an Imaging Machine ([…] Imaging GmbH, Heidelberg, Germany). […] Overview images of each laterally oriented larva were obtained with a 2× objective (40% LED intensity, 30 ms integration). For each larva, a region of interest (ROI) at the tail region caudal of the cloaca was selected with the Acquifer PlateViewer (V1.7.1, […]) for the 10× objective in order to image the blood flow and vasculature. After creating custom modificated imaging scripts via FIJI (Schindelin, Johannes, et al. “Fiji: an open-source platform for biological-image analysis.” Nature methods 9.7 (2012): 676-682), 10 consecutive brightfield frames at a framerate of 33 Hz were acquired (10× objective, 100% LED intensity, 30 ms integration) followed by one frame at 470 nm (10× objective, 50% LED intensity, 50 ms integration). […] The focal plane for both acquisitions was detected with a built-in two-step software autofocus (10× objective, 2×2 binning, 10% LED intensity, 10 ms integration, first step: 31 slices with 50 μm distance, second step: 10 slices with 10 μm slice distance, brightfield for the caudal vasculature, 555 nm for glomerular mCherry).
# Following image acquisition, tricaine-containing E3 was washed out two times of each well and replaced by 150 μl E3. […] In this way, two values for the vascular eGFP fluorescence and two values for the glomerular mCherry fluorescence were obtained for each individual larva.
# [3] = test system: wildtype (AB/TU strain) zebrafish larvae; assay: Toxicity of belinostat treatment on wildtype zebrafish larvae; format: in vivo; details: 250 μM belinostat, treated for 48 hours, at day 8
# Description: Larvae were treated for 48 hours and edema as well as malformations were assessed until 8 dpf.
# Mice (C57BL/6) = assay: NTS (nephrotoxic serum) induced glomerular injury in mice, plasma creatinine; format: in vivo, mouse; details: NTS with low dose belinostat (25 mg/kg) compared to NTS injury group
# Description: Mice (C57BL/6) were treated with PBS (healthy control), NTS (nephrotoxic serum, injury control), NTS with low dose belinostat (25 mg/kg) and NTS with high dose belinostat (50 mg/kg).
# [4] = 10 μM compound + 80 μM MTZ vs MTZ alone
smiles,measurement,setting,value
"CC(C)[C@H](C(=O)Nc1ccc(C(=O)NO)cc1)c1ccccc1 [AR-42, N-hydroxy-4-[[(2S)-3-methyl-2-phenylbutanoyl]amino]benzamide]",edema progression/formation at 10 μM,[1],able to prevent proteinuric edema
same,lethality at 100 μM,[1],lethal
same,effect in terms of proteinuric edema progression/formation,[1],protective effect
same,progression of podocyte injury induced in the disease model,[1],significantly slowed the progression of podocyte injury
"C#Cc1cccc(Nc2ncnc3cc(OC)c(OCCCCCCC(=O)NO)cc23)c1 [CUDC-101, 7-[4-(3-ethynylanilino)-7-methoxyquinazolin-6-yl]oxy-N-hydroxyheptanamide]",most effective concentration for prevention of proteinuric edema,[1],10 µM
same,effect in terms of proteinuric edema progression/formation,[1],protective effect
same,progression of podocyte injury induced in the disease model,[1],significantly slowed the progression of podocyte injury
"O=C(/C=C/c1ccc(CN(CCO)CCc2c[nH]c3ccccc23)cc1)NO [Dacinostat, (E)-N-hydroxy-3-[4-[[2-hydroxyethyl-[2-(1H-indol-3-yl)ethyl]amino]methyl]phenyl]prop-2-enamide]",edema progression/formation at 10 μM,[1],successfully prevented edema formation
same,lethality at 100 μM,[1],lethal
same,effect in terms of proteinuric edema progression/formation,[1],protective effect
same,progression of podocyte injury induced in the disease model,[1],significantly slowed the progression of podocyte injury
"O=C(CCCCCN1C(=O)c2cccc3cccc(c23)C1=O)NO [Scriptaid, 6-(1,3-Dioxo-1H,3H-benzo[de]isoquinolin-2-yl)-N-hydroxyhexanamide]",edema progression/formation at 10 μM,[1],successfully prevented edema progression
same,lethality at 100 μM,[1],in the lethal range
same,effect in terms of proteinuric edema progression/formation,[1],protective effect
same,progression of podocyte injury induced in the disease model,[1],significantly slowed the progression of podocyte injury
"O=C(CCCCCCC(=O)Nc1ccccc1)NO [Vorinostat, N′-hydroxy-N-phenyloctanediamide]",formation of moderate (type 3) edema,"[1]; 100 μM compound in conjunction with MTZ, 6 dpf",able to prevent formation of moderate edema
same,effect in terms of proteinuric edema progression/formation,[1],protective effect
same,progression of podocyte injury induced in the disease model,[1],significantly slowed the progression of podocyte injury
"O=C(/C=C/c1cccc(S(=O)(=O)Nc2ccccc2)c1)NO [belinostat, (2E)-N-hydroxy-3-[3-(phenylsulfamoyl)phenyl]prop-2-enamide]",loss of podocyte mCherry fluorescence (glomerular fluorescence ratio 6 dpf/5 dpf),[2]; [4],significantly reduced loss of podocyte mCherry fluorescence
same,renal leakage of 78 kDa VDP-eGFP through the glomerular filtration barrier (vascular eGFP fluorescence ratio 6 dpf/5 dpf),[2]; [4],could prevent the renal leakage
same,harmful effect on the glomerular filtration barrier or podocyte vitality,"[2]; 10 μM compound alone, without MTZ injury",no harmful effect
same,podocyte protection in drug library screen,[2],podocyte-protective
same,larvae with type 4 edema,"[1]; MTZ + 1 μM belinostat, 8 dpf (MTZ group 58.2%)",44.2%
same,larvae with edema formation,"[1]; MTZ + 1 μM belinostat, 8 dpf (MTZ group 83.6%)",80.8%
same,larvae with type 4 edema,"[1]; MTZ + 10 μM belinostat, 8 dpf (MTZ group 58.2%)",34.5%
same,larvae with edema formation,"[1]; MTZ + 10 μM belinostat, 8 dpf (MTZ group 83.6%)",80%
same,larvae with type 4 edema,"[1]; MTZ + 100 μM belinostat, 6 dpf (MTZ group 31%)",0%
same,larvae with edema formation,"[1]; MTZ + 100 μM belinostat, 6 dpf (MTZ group 60%)",15%
same,larvae with edema (contrasted with type 4 edema of MTZ group),"[1]; MTZ + 100 μM belinostat, 7 dpf (MTZ group type 4 edema 56.4%)",1.9%
same,larvae with type 4 edema,"[1]; MTZ + 100 μM belinostat, 8 dpf (MTZ group 58.2%)",28.3%
same,larvae with edema formation,"[1]; MTZ + 100 μM belinostat, 8 dpf (MTZ group 83.6%)",64.2%
same,progression of edema formation,"[1]; MTZ + 1, 10 or 100 μM belinostat, 7 dpf, dose-dependent",decelerated
same,number of larvae with type 3 and 4 edema,"[1]; MTZ + 1, 10 or 100 μM belinostat, after washout at 6 dpf, dose-dependent",reduced number of larvae with type 3 and 4 edema
same,edema progression with continuous treatment,"[1]; MTZ from 4-6 dpf and continuously belinostat until 8 dpf, vs belinostat until day 6",ameliorated most
same,delay in edema formation,"[1]; belinostat treatment groups, 8 dpf",stayed consistent
same,progression of podocyte injury induced in the disease model,[1],significantly slowed the progression of podocyte injury
same,larvae for which treatment is lethal,[3],35%
same,plasma creatinine concentration,Mice (C57BL/6),reduce plasma creatine concentrations significantly
"O=C(/C=C/C#Cc1cccc(NS(=O)(=O)c2ccccc2)c1)NO [oxamflatin, 5-[3-(benzenesulfonamido)phenyl]-N-hydroxypent-2-en-4-ynamide]",podocyte protection in drug library screen,[2],podocyte-protective
same,most effective concentration for prevention of proteinuric edema,[1],100 µM
same,progression of podocyte injury induced in the disease model,[1],significantly slowed the progression of podocyte injury
